Results: ChEMBL document CHEMBL1201862, “PubChem BioAssay data set” (2004)
One block for each compound: values may come before it. Activity calls are given as the source filed them.

Tests used:
[1] = molecular target: Trypsin (Sus scrofa, UniProt P00761); assay: porcine trypsin inhibitors, dose response, selectivity assay for Rce1 protease inhibitor project, biochemical, quenched peptide fluorescence, cherry-pick (AID 488789)
[2] = molecular target: T1, CAAX prenyl protease 2 (Saccharomyces cerevisiae S288c, UniProt Q03530); type: biochemical
T1 sequence (Q03530 whole entry): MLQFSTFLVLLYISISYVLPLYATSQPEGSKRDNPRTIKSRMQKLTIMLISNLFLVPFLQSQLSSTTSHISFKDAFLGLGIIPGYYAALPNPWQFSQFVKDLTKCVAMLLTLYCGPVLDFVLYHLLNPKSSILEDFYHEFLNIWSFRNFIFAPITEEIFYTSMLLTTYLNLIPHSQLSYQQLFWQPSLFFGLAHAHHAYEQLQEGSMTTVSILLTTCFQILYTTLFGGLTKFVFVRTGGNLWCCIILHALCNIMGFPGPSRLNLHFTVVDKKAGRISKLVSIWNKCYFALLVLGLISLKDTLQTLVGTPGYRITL

[3] = molecular target: Melanin-concentrating hormone receptor 1 (Homo sapiens, UniProt Q99705); assay: Fluorescence-based counterscreen for antagonists of the G-protein coupled receptor 7 (GPR7): cell-based high throughput dose response assay to identify antagonists of the melanin-concentrating hormone receptor 1 (MCHR1).; type: functional
Sequence of Melanin-concentrating hormone receptor 1 (Q99705 whole entry): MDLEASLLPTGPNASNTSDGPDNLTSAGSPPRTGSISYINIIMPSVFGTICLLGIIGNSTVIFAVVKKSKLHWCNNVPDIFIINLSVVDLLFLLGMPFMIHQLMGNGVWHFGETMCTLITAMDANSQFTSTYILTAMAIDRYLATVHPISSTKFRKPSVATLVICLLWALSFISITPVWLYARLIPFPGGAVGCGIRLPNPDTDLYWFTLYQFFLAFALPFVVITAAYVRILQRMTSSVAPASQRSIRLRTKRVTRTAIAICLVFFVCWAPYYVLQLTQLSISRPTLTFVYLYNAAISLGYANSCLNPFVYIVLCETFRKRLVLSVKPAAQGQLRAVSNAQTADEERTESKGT

[4] = molecular target: T2, Neuropeptides B/W receptor type 1 (Homo sapiens, UniProt P48145); assay: Fluorescence-based dose response cell-based high throughput screening assay to identify antagonists of the G-protein coupled receptor 7 (GPR7). [Related pubchem assays: 1952 (Screening assay (GPR7 antagonists).), 1880 (Summary AID.)]; type: functional
T2 sequence (P48145 whole entry): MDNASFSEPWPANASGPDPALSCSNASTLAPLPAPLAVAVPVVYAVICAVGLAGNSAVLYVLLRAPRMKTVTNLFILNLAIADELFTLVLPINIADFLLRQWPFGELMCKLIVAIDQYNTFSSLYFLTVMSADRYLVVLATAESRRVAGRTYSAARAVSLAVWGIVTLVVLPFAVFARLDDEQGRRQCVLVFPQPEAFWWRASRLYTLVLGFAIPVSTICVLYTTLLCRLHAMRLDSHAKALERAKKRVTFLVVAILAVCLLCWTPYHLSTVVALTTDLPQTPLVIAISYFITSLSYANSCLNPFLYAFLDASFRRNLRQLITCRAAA

[5] = molecular target: G-protein coupled receptor 55 (Homo sapiens, UniProt Q9Y2T6); assay: GPR55 agonists via beta-arrestin recruitment, primary screen, imaging, U2OS cells, beta-arrestin-GFP redistribution (AID 1961); type: functional
[6] = molecular target: T3, Carboxy-terminal domain RNA polymerase II polypeptide A small phosphatase 1 (Homo sapiens, UniProt Q9GZU7); assay: inhibitors of CTDSP1, concentration-response testing, biochemical assay, absorbance-based, actives from ultra-high-throughput screening (AID 540297); type: functional
T3 sequence (Q9GZU7 whole entry): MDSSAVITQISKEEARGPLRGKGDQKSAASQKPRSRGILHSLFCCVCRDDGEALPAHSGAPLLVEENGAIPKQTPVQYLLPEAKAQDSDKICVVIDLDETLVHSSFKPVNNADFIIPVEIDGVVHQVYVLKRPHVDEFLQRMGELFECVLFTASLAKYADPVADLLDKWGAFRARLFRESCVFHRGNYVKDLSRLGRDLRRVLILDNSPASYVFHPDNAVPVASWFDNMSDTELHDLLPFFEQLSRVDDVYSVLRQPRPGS

[7] = molecular target: T4, SUMO-activating enzyme (Homo sapiens, UniProt Q9UBT2); assay: inhibitors of in vitro SUMOylation cascade, primary screen, biochemical, HTRF, uHTS (AID 2006); type: protein-complex assay
T4 sequence (Q9UBE0 whole entry): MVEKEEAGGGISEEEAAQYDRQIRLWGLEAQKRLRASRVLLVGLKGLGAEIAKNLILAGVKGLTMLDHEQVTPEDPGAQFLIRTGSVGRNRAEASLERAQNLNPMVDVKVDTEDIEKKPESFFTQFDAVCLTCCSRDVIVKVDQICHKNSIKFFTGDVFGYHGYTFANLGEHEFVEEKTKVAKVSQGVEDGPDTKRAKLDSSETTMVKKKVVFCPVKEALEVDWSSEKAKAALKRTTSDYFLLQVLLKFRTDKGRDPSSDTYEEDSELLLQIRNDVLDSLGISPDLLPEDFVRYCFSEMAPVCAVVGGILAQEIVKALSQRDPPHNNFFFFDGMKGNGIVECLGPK
T4 sequence (Q9UBT2 whole entry): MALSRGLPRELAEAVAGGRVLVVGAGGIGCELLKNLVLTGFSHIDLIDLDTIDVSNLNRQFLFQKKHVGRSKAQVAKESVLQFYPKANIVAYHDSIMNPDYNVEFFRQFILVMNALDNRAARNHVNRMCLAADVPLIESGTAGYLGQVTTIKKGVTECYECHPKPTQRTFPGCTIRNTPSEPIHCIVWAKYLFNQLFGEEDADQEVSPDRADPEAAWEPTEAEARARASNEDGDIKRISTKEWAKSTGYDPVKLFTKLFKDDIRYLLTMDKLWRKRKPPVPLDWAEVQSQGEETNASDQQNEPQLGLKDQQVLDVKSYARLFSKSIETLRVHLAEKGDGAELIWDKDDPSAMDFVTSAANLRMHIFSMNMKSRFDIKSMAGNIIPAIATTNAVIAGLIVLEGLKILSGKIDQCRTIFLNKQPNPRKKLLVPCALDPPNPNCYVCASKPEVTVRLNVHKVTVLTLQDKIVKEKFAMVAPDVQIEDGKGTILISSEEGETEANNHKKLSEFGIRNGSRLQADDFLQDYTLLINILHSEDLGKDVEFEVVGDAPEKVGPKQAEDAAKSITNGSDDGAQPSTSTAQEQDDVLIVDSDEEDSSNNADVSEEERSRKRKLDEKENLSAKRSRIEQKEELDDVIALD

[8] = molecular target: T5, Zinc finger protein mex-5 (Caenorhabditis elegans, UniProt Q9XUB2); assay: MEX-5/TCR-2 RNA interaction inhibitors, dose response, biochemical, C. elegans, fluorescence polarization (AID 1960)
T5 sequence (Q9XUB2 whole entry): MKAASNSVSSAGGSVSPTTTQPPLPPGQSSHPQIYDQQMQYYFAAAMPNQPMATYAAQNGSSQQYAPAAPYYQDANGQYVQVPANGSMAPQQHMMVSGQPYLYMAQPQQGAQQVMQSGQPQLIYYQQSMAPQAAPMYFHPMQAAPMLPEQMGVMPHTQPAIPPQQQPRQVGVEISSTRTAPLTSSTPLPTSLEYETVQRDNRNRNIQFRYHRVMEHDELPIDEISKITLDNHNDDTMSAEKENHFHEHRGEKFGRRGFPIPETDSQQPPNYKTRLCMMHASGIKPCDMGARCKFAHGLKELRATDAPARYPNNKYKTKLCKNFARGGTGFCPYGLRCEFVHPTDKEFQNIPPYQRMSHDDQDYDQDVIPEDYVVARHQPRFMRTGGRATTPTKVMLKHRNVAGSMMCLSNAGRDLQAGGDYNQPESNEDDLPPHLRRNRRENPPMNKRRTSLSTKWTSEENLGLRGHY

[9] = molecular target: Phospholipase A2 (Homo sapiens, UniProt P04054); type: functional;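 also: confirmatory dose-response counterscreen on phospholipase A2, testing hits that came from an ultra-high-throughput screen for ATG4B inhibitors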
Sequence of Phospholipase A2 (P04054 whole entry): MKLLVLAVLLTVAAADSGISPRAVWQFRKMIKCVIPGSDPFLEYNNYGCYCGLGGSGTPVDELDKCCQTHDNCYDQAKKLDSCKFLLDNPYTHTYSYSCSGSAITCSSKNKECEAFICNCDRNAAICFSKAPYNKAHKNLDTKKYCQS

[10] = molecular target: T6, Cysteine protease ATG4B (Homo sapiens, UniProt Q9Y4P1); type: functional;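 also: Fluorescence-based dose-response confirmation assay measuring inhibition of ATG4B activity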
T6 sequence (Q9Y4P1 whole entry): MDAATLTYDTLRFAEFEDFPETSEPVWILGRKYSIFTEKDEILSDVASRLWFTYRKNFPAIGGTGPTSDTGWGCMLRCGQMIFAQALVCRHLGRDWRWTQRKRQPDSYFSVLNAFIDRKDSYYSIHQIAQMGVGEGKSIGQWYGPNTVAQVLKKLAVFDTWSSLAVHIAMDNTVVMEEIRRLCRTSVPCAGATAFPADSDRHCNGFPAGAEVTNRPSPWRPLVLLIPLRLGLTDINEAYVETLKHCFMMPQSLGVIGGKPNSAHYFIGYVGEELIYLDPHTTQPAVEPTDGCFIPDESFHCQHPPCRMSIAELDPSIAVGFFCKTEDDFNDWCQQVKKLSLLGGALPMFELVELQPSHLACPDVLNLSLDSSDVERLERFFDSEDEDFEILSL

[11] = molecular target: T4, SUMO-activating enzyme; assay: SUMOylation inhibitor hit validation, confirmation, SUMOylation inhibitor project, biochemical, AlphaScreen (AID 2018); type: functional
[12] = molecular target: T7, RNA-binding protein pos-1 (Caenorhabditis elegans, UniProt G5EF15); assay: inhibitors of POS-1/mex-3 RNA binding, dose response, biochemical, fluorescence polarization (AID 1964);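 also: purified POS-1 fused to maltose binding protein made in E. coli; potency of compounds blocking POS-1 binding to fluorescent RNA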
T7 sequence (G5EF15 whole entry): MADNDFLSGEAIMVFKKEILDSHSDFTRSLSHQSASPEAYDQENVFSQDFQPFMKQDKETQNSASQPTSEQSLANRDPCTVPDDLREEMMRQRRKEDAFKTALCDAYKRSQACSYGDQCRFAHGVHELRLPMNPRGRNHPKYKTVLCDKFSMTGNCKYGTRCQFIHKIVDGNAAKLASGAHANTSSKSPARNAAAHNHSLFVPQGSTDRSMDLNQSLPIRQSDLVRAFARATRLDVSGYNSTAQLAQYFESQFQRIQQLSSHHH

[13] = molecular target: T8, Caspase-6 (Homo sapiens, UniProt P55212); assay: human caspase-6 inhibitors, dose response, biochemical, VEID-R110 fluorescence, cherry-pick (AID 720632)
T8 sequence (P55212 whole entry): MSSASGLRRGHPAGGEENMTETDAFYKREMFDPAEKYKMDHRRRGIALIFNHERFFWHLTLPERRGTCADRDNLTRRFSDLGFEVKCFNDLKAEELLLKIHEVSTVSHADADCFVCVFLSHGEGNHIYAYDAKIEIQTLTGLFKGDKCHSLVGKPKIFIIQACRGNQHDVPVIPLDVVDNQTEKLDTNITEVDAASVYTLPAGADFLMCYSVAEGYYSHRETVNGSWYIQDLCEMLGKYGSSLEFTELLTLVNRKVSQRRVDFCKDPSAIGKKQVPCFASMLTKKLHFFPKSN

[14] = molecular target: Large T antigen (Simian virus 40, UniProt P03070); type: functional, Betapolyomavirus macacae;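 also: Confirmatory-stage PubChem screen for compounds that inhibit SV40 T antigen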
[15] = molecular target: Induced myeloid leukemia cell differentiation protein Mcl-1 (Homo sapiens, UniProt Q07820); type: functional
Sequence of Induced myeloid leukemia cell differentiation protein Mcl-1 (Q07820 whole entry): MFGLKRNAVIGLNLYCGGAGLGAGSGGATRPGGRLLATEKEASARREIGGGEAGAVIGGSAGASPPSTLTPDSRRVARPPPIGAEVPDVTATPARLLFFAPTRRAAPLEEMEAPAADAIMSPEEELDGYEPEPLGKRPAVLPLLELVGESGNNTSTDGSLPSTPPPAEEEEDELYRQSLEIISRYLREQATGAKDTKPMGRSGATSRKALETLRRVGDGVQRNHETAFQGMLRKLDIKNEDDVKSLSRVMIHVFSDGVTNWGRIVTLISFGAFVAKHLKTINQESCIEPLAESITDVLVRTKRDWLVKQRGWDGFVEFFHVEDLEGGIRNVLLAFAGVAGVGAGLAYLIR

[16] = molecular target: DNA (cytosine-5)-methyltransferase 1 (Homo sapiens, UniProt P26358); assay: DNMT1 methyltransferase inhibitors, confirmation, biochemical, fluorescent molecular beacon (AID 602386); type: functional
[17] = molecular target: ORF 73 (Human herpesvirus 8, UniProt O40947); assay: inhibitors of C-LANA binding to LBS DNA, dose response, biochemical, fluorescence polarization, cherry-picked samples (AID 504725); parameters: species or system Human gammaherpesvirus 8;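 also: fluorescence polarization of a labeled DNA duplex reporting LANA DNA binding; potency is for inhibitors that block LANA binding to the DNA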
Sequence of ORF 73 (O40947 whole entry): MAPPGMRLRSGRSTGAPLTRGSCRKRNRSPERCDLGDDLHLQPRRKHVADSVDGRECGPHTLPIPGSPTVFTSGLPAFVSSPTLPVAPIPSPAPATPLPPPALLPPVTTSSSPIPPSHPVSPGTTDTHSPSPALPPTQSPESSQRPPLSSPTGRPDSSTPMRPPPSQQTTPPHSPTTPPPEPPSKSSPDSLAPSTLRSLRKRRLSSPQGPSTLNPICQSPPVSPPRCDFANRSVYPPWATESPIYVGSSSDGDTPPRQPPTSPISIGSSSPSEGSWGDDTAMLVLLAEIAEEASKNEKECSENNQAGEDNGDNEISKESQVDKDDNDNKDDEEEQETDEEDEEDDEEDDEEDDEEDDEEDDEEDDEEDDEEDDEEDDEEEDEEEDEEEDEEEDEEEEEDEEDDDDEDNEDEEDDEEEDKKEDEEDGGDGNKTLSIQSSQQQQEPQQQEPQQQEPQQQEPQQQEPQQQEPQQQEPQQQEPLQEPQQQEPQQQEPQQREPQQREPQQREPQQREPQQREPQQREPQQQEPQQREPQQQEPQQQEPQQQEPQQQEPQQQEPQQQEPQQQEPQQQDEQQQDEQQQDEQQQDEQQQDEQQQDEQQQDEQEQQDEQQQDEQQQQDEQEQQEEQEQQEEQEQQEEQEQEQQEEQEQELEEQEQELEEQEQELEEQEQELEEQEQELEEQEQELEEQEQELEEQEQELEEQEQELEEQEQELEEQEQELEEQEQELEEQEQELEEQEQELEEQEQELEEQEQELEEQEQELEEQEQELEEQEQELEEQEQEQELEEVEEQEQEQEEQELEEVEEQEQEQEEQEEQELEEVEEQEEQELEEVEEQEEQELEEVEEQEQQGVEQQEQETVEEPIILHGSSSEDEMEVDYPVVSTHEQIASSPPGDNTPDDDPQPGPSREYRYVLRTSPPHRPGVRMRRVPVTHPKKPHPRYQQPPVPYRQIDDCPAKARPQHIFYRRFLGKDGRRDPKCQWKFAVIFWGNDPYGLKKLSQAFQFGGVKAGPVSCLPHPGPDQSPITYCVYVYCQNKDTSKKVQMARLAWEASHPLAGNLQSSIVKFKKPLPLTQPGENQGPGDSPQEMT

[18] = molecular target: T9, Tyrosine-protein phosphatase non-receptor type 7 (Homo sapiens, UniProt P35236); assay: redox-dependent HePTP inhibition, mechanism study, biochemical, fluorescence (AID 2068); type: functional
T9 sequence (P35236 whole entry): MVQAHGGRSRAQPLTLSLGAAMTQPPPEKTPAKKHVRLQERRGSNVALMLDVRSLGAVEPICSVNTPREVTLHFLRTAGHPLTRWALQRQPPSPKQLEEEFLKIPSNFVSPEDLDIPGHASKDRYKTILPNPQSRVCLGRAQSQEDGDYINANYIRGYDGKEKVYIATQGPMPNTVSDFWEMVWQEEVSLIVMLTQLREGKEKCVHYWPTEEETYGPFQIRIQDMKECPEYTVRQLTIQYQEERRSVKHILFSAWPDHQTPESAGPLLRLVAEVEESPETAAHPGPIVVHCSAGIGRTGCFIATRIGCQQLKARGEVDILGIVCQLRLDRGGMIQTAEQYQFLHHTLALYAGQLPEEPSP

[19] = molecular target: T10, Dual specificity protein phosphatase 6 (Rattus norvegicus, UniProt Q64346); type: functional;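 also: confirmatory in vitro dose-response testing of MKP-3 inhibition; recombinant His-tagged MKP-3 made in E. coli BL21 with OMFP substrate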
T10 sequence (Q64346 whole entry): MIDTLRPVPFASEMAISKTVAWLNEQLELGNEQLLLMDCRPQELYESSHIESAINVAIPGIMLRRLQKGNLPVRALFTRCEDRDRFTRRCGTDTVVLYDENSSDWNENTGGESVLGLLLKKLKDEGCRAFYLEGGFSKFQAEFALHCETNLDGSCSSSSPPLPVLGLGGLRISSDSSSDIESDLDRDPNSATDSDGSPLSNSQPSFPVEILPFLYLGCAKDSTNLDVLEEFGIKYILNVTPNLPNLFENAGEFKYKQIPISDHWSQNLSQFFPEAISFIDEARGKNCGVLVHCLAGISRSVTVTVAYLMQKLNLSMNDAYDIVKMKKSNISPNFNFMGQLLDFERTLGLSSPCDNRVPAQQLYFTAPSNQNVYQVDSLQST

[20] = molecular target: T11, Kappa-type opioid receptor (Homo sapiens, UniProt P41145); assay: SAR analysis of small molecule antagonists of the kappa opioid receptor via a luminescent beta-arrestin assay - Set 4. [Related pubchem assays (depositor defined):AID1777, AID1778, AID1785, AID1786, AID1966, AID2133, AID2136, AID2285]; type: functional
T11 sequence (P41145 whole entry): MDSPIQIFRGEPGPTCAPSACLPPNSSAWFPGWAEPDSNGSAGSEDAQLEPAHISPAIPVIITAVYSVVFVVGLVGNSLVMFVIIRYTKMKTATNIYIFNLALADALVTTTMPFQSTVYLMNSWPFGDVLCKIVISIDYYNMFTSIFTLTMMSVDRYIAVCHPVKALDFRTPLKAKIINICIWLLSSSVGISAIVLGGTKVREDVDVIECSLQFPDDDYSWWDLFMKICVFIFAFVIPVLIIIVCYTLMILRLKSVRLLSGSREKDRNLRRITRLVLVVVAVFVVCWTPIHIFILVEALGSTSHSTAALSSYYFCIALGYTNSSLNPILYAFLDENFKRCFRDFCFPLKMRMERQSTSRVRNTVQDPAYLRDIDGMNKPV

[21] = molecular target: Mu-type opioid receptor (Homo sapiens, UniProt P35372); assay: SAR Analysis of Antagonists of the MOR Receptor using an Image-Based Assay - Set 3. [Related pubchem assays (depositor defined):AID1777, AID1785, AID1786, AID1966, AID2133, AID2136, AID2284, AID2285, AID2420]; type: functional
Sequence of Mu-type opioid receptor (P35372 whole entry): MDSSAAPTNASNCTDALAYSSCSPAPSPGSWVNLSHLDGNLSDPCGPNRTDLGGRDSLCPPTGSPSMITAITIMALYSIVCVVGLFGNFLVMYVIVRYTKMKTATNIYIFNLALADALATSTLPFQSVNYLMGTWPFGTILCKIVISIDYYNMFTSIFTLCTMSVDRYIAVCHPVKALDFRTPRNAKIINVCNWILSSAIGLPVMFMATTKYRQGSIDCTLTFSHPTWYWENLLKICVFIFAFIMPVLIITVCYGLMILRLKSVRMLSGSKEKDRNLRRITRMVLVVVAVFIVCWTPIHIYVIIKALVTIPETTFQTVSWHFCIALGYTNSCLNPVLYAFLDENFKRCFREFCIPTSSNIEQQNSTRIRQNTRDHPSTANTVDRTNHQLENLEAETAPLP

[22] = molecular target: T11, Kappa-type opioid receptor; assay: SAR analysis of Antagonists of the Kappa Opioid Receptor (KOR) using an Image-Based Assay - Set 4. [Related pubchem assays (depositor defined):AID1777, AID1785]; type: functional
[23] = molecular target: Delta-type opioid receptor (Homo sapiens, UniProt P41143); assay: SAR Analysis of Antagonists of the DOR Receptor using an Image-Based Assay - Set 3. [Related pubchem assays (depositor defined):AID1777, AID1785]; type: functional;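 also: U2OS cells expressing DOR1 and beta-arrestin GFP stimulated with 100 nM SNC80; imaging of GFP-tagged beta-arrestin moving into spots after receptor activation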
Sequence of Delta-type opioid receptor (P41143 whole entry): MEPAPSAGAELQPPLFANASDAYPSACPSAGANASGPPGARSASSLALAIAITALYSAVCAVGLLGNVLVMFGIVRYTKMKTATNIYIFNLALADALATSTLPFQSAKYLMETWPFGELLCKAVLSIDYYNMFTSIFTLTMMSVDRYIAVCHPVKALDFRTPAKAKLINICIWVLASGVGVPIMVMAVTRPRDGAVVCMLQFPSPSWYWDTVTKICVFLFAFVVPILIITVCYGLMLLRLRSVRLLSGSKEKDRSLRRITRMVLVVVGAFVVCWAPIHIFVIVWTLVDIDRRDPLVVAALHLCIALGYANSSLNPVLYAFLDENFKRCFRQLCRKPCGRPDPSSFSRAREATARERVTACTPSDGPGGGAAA

[24] = molecular target: Hexokinase (Trypanosoma brucei, UniProt Q38C41); assay: Confirmation assay for inhibitors of Trypanosoma brucei hexokinase 1-Analogue-first series. [Related pubchem assays (depositor defined):AID1430, AID1632, AID2516, AID2560, AID2579, AID2600, AID449725, AID492951]; type: functional
Sequence of Hexokinase (Q38C41 whole entry): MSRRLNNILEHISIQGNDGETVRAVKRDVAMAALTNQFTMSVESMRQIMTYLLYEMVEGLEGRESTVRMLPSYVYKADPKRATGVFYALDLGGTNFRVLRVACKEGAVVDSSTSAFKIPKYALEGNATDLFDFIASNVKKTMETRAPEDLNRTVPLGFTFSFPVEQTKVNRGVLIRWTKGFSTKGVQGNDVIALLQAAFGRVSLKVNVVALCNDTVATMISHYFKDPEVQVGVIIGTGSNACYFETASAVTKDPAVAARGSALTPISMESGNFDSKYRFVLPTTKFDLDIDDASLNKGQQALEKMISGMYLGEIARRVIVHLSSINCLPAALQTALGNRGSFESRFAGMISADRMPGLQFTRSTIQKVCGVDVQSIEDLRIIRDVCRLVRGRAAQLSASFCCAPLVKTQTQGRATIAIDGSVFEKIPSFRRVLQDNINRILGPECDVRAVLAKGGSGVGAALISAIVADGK

Sequence of Trypsin (P00761 whole entry): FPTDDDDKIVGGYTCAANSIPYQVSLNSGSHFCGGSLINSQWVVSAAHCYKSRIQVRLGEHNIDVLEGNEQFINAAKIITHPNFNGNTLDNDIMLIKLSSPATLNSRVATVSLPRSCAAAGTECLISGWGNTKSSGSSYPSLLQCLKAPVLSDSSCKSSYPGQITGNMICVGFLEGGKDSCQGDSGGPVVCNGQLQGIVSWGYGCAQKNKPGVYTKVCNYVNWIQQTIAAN

Compound: Cc1cc(C)n2cc(CSCC(=O)O)nc2n1
AC50 [1]: 12 µM (active) | AC50 [2]: 12.1 µM (active)

Compound: COc1cc(C(=S)NC(C)(C)C)ccc1O
IC50 [18]: 13.1 µM (active) | IC50 [19]: > 100 µM (inactive)

Compound: COc1ccc(N2CCN(CCNC(=O)Cn3c(=O)c4cccn4c4c(C)ccnc43)CC2)cc1
IC50 [20]: 14.1 µM (inactive) | IC50 [21]: > 32 µM (inactive) | IC50 [22]: > 32 µM (inactive) | IC50 [23]: > 32 µM (inactive)

Compound: COc1cccc(CC(=O)Nc2cc(Cl)ccc2C(=O)O)c1
IC50 [24]: > 25 µM (inactive)

Compound: O=C(Cn1sc2ccccc2c1=O)Nc1ccccc1C(F)(F)F
IC50 [24]: > 25 µM (inactive)

Next, values leading:

AC50 [1]: 8.75 µM (active) | AC50 [2]: 10.7 µM (active)
Compound: O=C(NCCc1cccnc1)c1cc(COc2ccc(F)cc2Cl)on1

IC50 [3]: 16.9 µM (not active) | IC50 [4]: 23.5 µM (not active) | EC50 [5]: 21 µM (inactive)
Compound: Cc1ccc(Cl)cc1N1CCN(C(=O)c2ccc3c(c2)CCN3S(C)(=O)=O)CC1

IC50 [6]: 1.44 µM (active) | IC50 [7]: 9.45 µM (active) | EC50 [8]: 1.68 µM (active) | IC50 [9]: 1.77 µM (active) | IC50 [10]: 2.05 µM (active) | IC50 [11]: 2.85 µM (active) | EC50 [12]: 2.41 µM (active)
Compound: Cc1ccccc1NC(=O)CN1C(=O)S/C(=C\c2ccc(-c3cc(C(=O)O)ccc3C)o2)C1=O

AC50 [13]: 11.1 µM (active) | IC50 [14]: 23.1 µM (active) | IC50 [15]: 4.87 µM (active) | IC50 [16]: 6.74 µM (active) | AC50 [17]: 22.1 µM (active)
Compound: O=C(O)Cc1c[nH]c2cccc(O)c12

IC50 [18]: 0.766 µM (active) | IC50 [19]: > 100 µM (inactive)
Compound: CCC(CC)NC(=S)c1ccc(O)c(OC)c1

IC50 [20]: 1.6 µM (active) | IC50 [21]: > 32 µM (inactive) | IC50 [22]: 2.01 µM (active) | IC50 [23]: > 32 µM (inactive)
Compound: CCC(C)c1ccc(S(=O)(=O)NCc2ccc(C(=O)NCCN(Cc3ccccc3)C(C)C)cc2)cc1 (stereo not drawn)
